The values that follow come from ChEMBL document CHEMBL4118205, “Design, synthesis and biological evaluation of artemisinin derivatives containing fluorine atoms as anticancer agents” (Bioorg Med Chem Lett, 2018).

The test system of assay [1] is L02. As to the kind of experiment: Cytotoxicity against human L02 cells assessed as reduction in cell viability after 72 hrs by MTT assay. Type of assay: functional, cell-based. Conditions: L02, 72 h.
The test system of the next assay is A-375. As to the kind of experiment: Cytotoxicity against human A375 cells assessed as reduction in cell viability after 72 hrs by MTT assay. Type of assay: functional, cell-based. The note with it: A-375, 72 h.
Assay [2] deals with U-87 MG. Description: Cytotoxicity against human U87 cells assessed as reduction in cell viability after 72 hrs by MTT assay. In kind it is functional, cell-based, U-87MG ATCC. A general note: Formazan colour is commonly taken as a measure of viable cells.
For assay [3], the system named is MDA-MB-231. Description: Cytotoxicity against human MDA-MB-231 cells assessed as reduction in cell viability after 72 hrs by MTT assay. In kind it is functional, cell-based. The note with it: MDA-MB-231, 72 h.
In assay [4] the test system is SH-SY5Y. As to the kind of experiment: Cytotoxicity against human SH-SY5Y cells assessed as reduction in cell viability after 72 hrs by MTT assay. In kind it is functional, cell-based.
Assay [5] concerns MCF7. As to the kind of experiment: Cytotoxicity against human MCF7 cells assessed as reduction in cell viability after 72 hrs by MTT assay. Conditions: MCF7, 72 h. In kind it is functional, cell-based.
The test system of assay [6] is A549. Description: Cytotoxicity against human A549 cells assessed as reduction in cell viability after 72 hrs by MTT assay. In kind it is functional, cell-based. The note with it: A549, 72 h.
Assay [7] concerns SH-SY5Y. As to the kind of experiment: Cytotoxicity against human SH-SY5Y cells assessed as reduction in cell viability after 24 to 72 hrs by MTT assay. In kind it is functional, cell-based.
Assay [8] concerns MDA-MB-231. Description: Cytotoxicity against human MDA-MB-231 cells assessed as reduction in cell viability after 24 to 72 hrs by MTT assay. Type of assay: functional, cell-based.
In assay [9] the test system is MCF7. Description: Cytotoxicity against human MCF7 cells assessed as reduction in cell viability after 24 to 72 hrs by MTT assay. Type of assay: functional, cell-based.
Assay [10] has as its system U-87 MG. As to the kind of experiment: Cytotoxicity against human U87 cells assessed as reduction in cell viability after 24 to 72 hrs by MTT assay. In kind it is functional, cell-based, U-87MG ATCC.
The subject of assay [11] is A549. As to the kind of experiment: Cytotoxicity against human A549 cells assessed as reduction in cell viability after 24 to 72 hrs by MTT assay. In kind it is functional, cell-based.
Assay [12] concerns L02. As to the kind of experiment: Cytotoxicity against human L02 cells assessed as reduction in cell viability after 24 to 72 hrs by MTT assay. Type of assay: functional, cell-based.

As a reminder, the IC50 is the concentration that inhibits the measured activity by half. For the molecule `C[C@H]1[C@H](N2CCN(c3ccc(C(F)(F)F)cc3)CC2)O[C@@H]2O[C@@]3(C)CC[C@H]4[C@H](C)CC[C@@H]1[C@@]24OO3`, the IC50 in the assay on L02 [1] was 20.5 µM; in the assay on A-375 it was 40.9 µM; with U-87 MG [2], more than 50 µM; in the assay on MDA-MB-231 [3], more than 50 µM; with SH-SY5Y [4], more than 50 µM; in the assay with MCF7 [5], 27 µM. Further, the IC50 in the assay on A549 [6] was more than 50 µM.

`C[C@H]1[C@H](N2CCN(c3ccc(F)cc3)CC2)O[C@@H]2O[C@@]3(C)CC[C@H]4[C@H](C)CC[C@@H]1[C@@]24OO3`: the IC50 with L02 [1] is 11.2 µM; with A-375, more than 50 µM; in the assay with U-87 MG [2], 25.5 µM; in the assay with MDA-MB-231 [3], more than 50 µM; with SH-SY5Y [4] it was more than 50 µM; in the assay with MCF7 [5], 28.8 µM. The IC50 in the assay with A549 [6] is more than 50 µM.

For `C[C@H]1[C@H](Nc2ccc(SC(F)(F)F)cc2)O[C@@H]2O[C@@]3(C)CC[C@H]4[C@H](C)CC[C@@H]1[C@@]24OO3`, the IC50 in the assay on L02 [1] was determined as 9.3 µM; in the assay with A-375, 26.5 µM; in the assay on U-87 MG [2] it was 28 µM; with MDA-MB-231 [3], 22.9 µM; in the assay with SH-SY5Y [4], 20.3 µM; in the assay on MCF7 [5], 5.3 µM. In addition, in the assay on A549 [6], the 50% inhibitory concentration (IC50) amounted to 41.8 µM.

Take `Cn1nnc2c(C(N)=O)ncn2c1=O` [TEMOZOLOMIDE]: the IC50 in the assay on U-87 MG [2] and with SH-SY5Y [4] was more than 50 µM in each case.

For `C[C@H]1[C@H](N2CCN(C(=O)Nc3ccc(C(F)(F)F)cc3)CC2)O[C@@H]2O[C@@]3(C)CC[C@H]4[C@H](C)CC[C@@H]1[C@@]24OO3`, the IC50 in the assay with L02 [1] stood at 4 µM; in the assay on A-375 it was 15 µM; in the assay on U-87 MG [2] it was 15.2 µM; in the assay on MDA-MB-231 [3] it was 5.8 µM; in the assay on SH-SY5Y [4], 3.2 µM; in the assay on MCF7 [5] it was 2.7 µM. Also, the IC50 in the assay on A549 [6] turned out to be 21.1 µM.

As to `CCOC(=O)N1CCN([C@@H]2O[C@@H]3O[C@@]4(C)CC[C@H]5[C@H](C)CC[C@@H]([C@H]2C)[C@@]35OO4)CC1`, the IC50 in the assay with SH-SY5Y [7] is more than 50 µM; in the assay on MDA-MB-231 [8], 19.2 µM; in the assay on MCF7 [9], 15.2 µM; in the assay with U-87 MG [10], more than 50 µM; in the assay on A549 [11] it was 19.9 µM; in the assay on L02 [12], more than 50 µM.

Consider `C[C@H]1[C@@H](O)O[C@@H]2O[C@@]3(C)CC[C@H]4[C@H](C)CC[C@@H]1[C@@]24OO3` [ARTENIMOL], for which the IC50 in the assay on L02 [1] is 34 µM; with A-375, 38.5 µM; in the assay on U-87 MG [2], more than 50 µM; with MDA-MB-231 [3], 45.7 µM; in the assay on SH-SY5Y [4] it was more than 50 µM; with MCF7 [5], more than 50 µM. Besides, the IC50 in the assay on A549 [6] came to 46.8 µM.

As to `C[C@@H]1CC[C@H]2[C@@H](C)C(=O)O[C@@H]3O[C@@]4(C)CC[C@@H]1[C@]32OO4` [ARTEMISININ], the IC50 in the assay with L02 [1], with A-375, in the assay on U-87 MG [2], with MDA-MB-231 [3], with SH-SY5Y [4] and with MCF7 [5] was more than 50 µM in each case. Besides, the IC50 in the assay on A549 [6] was more than 50 µM.

For `C[C@H]1[C@H](NCc2ccc(OC(F)(F)F)cc2)O[C@@H]2O[C@@]3(C)CC[C@H]4[C@H](C)CC[C@@H]1[C@@]24OO3`, the IC50 with L02 [1] came out at 35.7 µM; in the assay with A-375, 10.9 µM; with U-87 MG [2] it was 17.7 µM; in the assay with MDA-MB-231 [3] it was 21.8 µM; in the assay with SH-SY5Y [4], 5 µM; in the assay with MCF7 [5] it was 10.2 µM. The IC50 in the assay with A549 [6] worked out at 17.9 µM.

Take `C[C@H]1[C@H](N2CCN(Cc3cccc(F)c3)CC2)O[C@@H]2O[C@@]3(C)CC[C@H]4[C@H](C)CC[C@@H]1[C@@]24OO3`: the IC50 was 23.2 µM in the assay with L02 [1]; 46.5 µM with A-375; more than 50 µM in the assay with U-87 MG [2]; 32.9 µM with MDA-MB-231 [3]; more than 50 µM with SH-SY5Y [4]; 6.8 µM in the assay with MCF7 [5]. The IC50 with A549 [6] stood at 44.4 µM.

For `COc1cccc2c1C(=O)c1c(O)c3c(c(O)c1C2=O)C[C@@](O)(C(=O)CO)C[C@@H]3O[C@H]1C[C@H](N)[C@H](O)[C@H](C)O1` [DOXORUBICIN], the IC50 with L02 [1] is 0.9 µM; in the assay with A-375, 0.4 µM; in the assay with MDA-MB-231 [3], 2.8 µM; with A549 [6], 2.3 µM.

For the molecule `C[C@H]1[C@H](N2CCN(C(=O)Nc3ccc(F)cc3)CC2)O[C@@H]2O[C@@]3(C)CC[C@H]4[C@H](C)CC[C@@H]1[C@@]24OO3`, the IC50 in the assay on L02 [1] was found to be 15.6 µM; with A-375, 9.1 µM; with U-87 MG [2], 28.7 µM; in the assay with MDA-MB-231 [3] it was 10.9 µM; in the assay on SH-SY5Y [4], 5 µM; with MCF7 [5], 5.5 µM. Further, the IC50 with A549 [6] worked out at 17.6 µM.

On to `C[C@H]1[C@H](N2CCN(Cc3ccc(F)cc3)CC2)O[C@@H]2O[C@@]3(C)CC[C@H]4[C@H](C)CC[C@@H]1[C@@]24OO3`, for which the IC50 with L02 [1] was 17.1 µM; with A-375, 12.8 µM; in the assay with U-87 MG [2] it was more than 50 µM; with MDA-MB-231 [3], 12 µM; in the assay with SH-SY5Y [4] it was 15 µM; in the assay with MCF7 [5], 3.5 µM. Besides, the IC50 in the assay on A549 [6] came out at 35.9 µM.

For the molecule `C[C@H]1[C@H](N2CCN(c3cccc(C(F)(F)F)c3)CC2)O[C@@H]2O[C@@]3(C)CC[C@H]4[C@H](C)CC[C@@H]1[C@@]24OO3`, the half-maximal inhibitory concentration (IC50) in the assay with L02 [1] was 9.1 µM; with A-375, 20 µM; in the assay with U-87 MG [2] it was more than 50 µM; with MDA-MB-231 [3], 12.5 µM; in the assay with SH-SY5Y [4], 11.2 µM; in the assay with MCF7 [5] it was 7.5 µM. The IC50 in the assay with A549 [6] stood at 12.9 µM.
